Assay results reported in PubChem BioAssay AID248 (DTP/NCI, 2004).
Where “and” joins values, the source holds several entries; their conditions need not be identical. Equal entries are not always repeated. Toxic doses and inconclusive results are not listed. Rule as the data show it: active = T/C of 150% or more; inactive = T/C below 125%.

Tested on: L1210 leukemia ip in BDF1 mice, survival T/C
Assay: NCI In Vivo Anticancer Drug Screen. Data for tumor model L1210 Leukemia (intraperitoneal) in B6D2F1 (BDF1) mice
Details: endpoint: mean survival time, higher = longer survival
Procedure, shortened: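 Antitumor effect is assessed in tumor-bearing animals. Survival in the compound arm is compared with a vehicle-dosed control arm and expressed as their quotient.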

[1] = dose: 100.0 mg/kg/injection, schedule: Q04DX003 (ip), vehicle: Klucel (hydroxypropylcellulose) (HPC)
[2] = dose: 200.0 mg/kg/injection, schedule: Q04DX003 (ip), vehicle: Klucel (hydroxypropylcellulose) (HPC)
[3] = dose: 400.0 mg/kg/injection, schedule: Q04DX003 (ip), vehicle: Klucel (hydroxypropylcellulose) (HPC)
[4] = dose: 50.0 mg/kg/injection, schedule: Q01DX001 (ip), vehicle: saline
[5] = dose: 100.0 mg/kg/injection, schedule: Q01DX001 (ip), vehicle: saline
[6] = dose: 200.0 mg/kg/injection, schedule: Q01DX001 (ip), vehicle: saline

Measured: T/C

c1scc2c1COCc1cscc1-2
inactive: dose: 100.0 mg/kg/injection, schedule: Q01DX001 (ip), vehicle: saline with Tween-80 94 % of control | dose: 200.0 mg/kg/injection, schedule: Q01DX001 (ip), vehicle: saline with Tween-80 94 % of control | dose: 400.0 mg/kg/injection, schedule: Q01DX001 (ip), vehicle: saline with Tween-80 88 % of control

N#CNc1nc(-c2ccccc2)cc(-c2ccccc2O)n1
inactive: dose: 100.0 mg/kg/injection, schedule: Q04DX002 (ip), vehicle: Klucel (hydroxypropylcellulose) (HPC) 98 % of control | dose: 200.0 mg/kg/injection, schedule: Q04DX002 (ip), vehicle: Klucel (hydroxypropylcellulose) (HPC) 95 % of control | dose: 400.0 mg/kg/injection, schedule: Q04DX002 (ip), vehicle: Klucel (hydroxypropylcellulose) (HPC) 109 % of control

CSc1ncc(C(=O)O)c(=O)[nH]1
inactive: dose: 50.0 mg/kg/injection, schedule: Q01DX009 (ip), vehicle: Klucel (hydroxypropylcellulose) (HPC) 95 % of control | dose: 100.0 mg/kg/injection, schedule: Q01DX009 (ip), vehicle: Klucel (hydroxypropylcellulose) (HPC) 88 % of control and 90 % of control | [1] 104 % of control | dose: 200.0 mg/kg/injection, schedule: Q01DX009 (ip), vehicle: Klucel (hydroxypropylcellulose) (HPC) 94 % of control | [2] 101 % of control | dose: 400.0 mg/kg/injection, schedule: Q01DX009 (ip), vehicle: Klucel (hydroxypropylcellulose) (HPC) 88 % of control | [3] 102 % of control

O=C(O)CC(C(=O)O)c1ccccc1O (centres undefined)
inactive: dose: 25.0 mg/kg/injection, schedule: Q04DX003 (ip), vehicle: Klucel (hydroxypropylcellulose) (HPC) 95 % of control | [4] 100 % of control | dose: 50.0 mg/kg/injection, schedule: Q04DX003 (ip), vehicle: Klucel (hydroxypropylcellulose) (HPC) 93 % of control | [5] 96 % of control | [6] 90 % of control

CCCCCCCCCCCC(=O)N(C)C
inactive: [1] 109 % of control | [2] 111 % of control | [3] 109 % of control

CC1(NCc2ccc(Cl)cc2)COP(=O)(NCc2ccccc2)OC1 (centres undefined)
inactive: [4] 101 % of control | [5] 106 % of control | [6] 95 % of control | dose: 400.0 mg/kg/injection, schedule: Q01DX001 (ip), vehicle: saline 98 % of control

O=C1Nc2ccc(C(=O)O)c(O)c2C1=O
inactive: dose: 50.0 mg/kg/injection, schedule: Q01DX001 (ip), vehicle: Klucel (hydroxypropylcellulose) (HPC) 112 % of control | dose: 100.0 mg/kg/injection, schedule: Q01DX001 (ip), vehicle: Klucel (hydroxypropylcellulose) (HPC) 112 % of control | dose: 200.0 mg/kg/injection, schedule: Q01DX001 (ip), vehicle: Klucel (hydroxypropylcellulose) (HPC) 102 % of control

CCOC(=O)CN=NNc1ccc(C(=O)OCC)cc1
inactive: dose: 25.0 mg/kg/injection, schedule: Q01DX009 (ip), vehicle: other 95 % of control | dose: 50.0 mg/kg/injection, schedule: Q01DX009 (ip), vehicle: other 96 % of control | dose: 50.0 mg/kg/injection, schedule: Q04DX003 (ip), vehicle: other 105 % of control | dose: 100.0 mg/kg/injection, schedule: Q01DX001 (ip), vehicle: other 98 % of control | dose: 100.0 mg/kg/injection, schedule: Q04DX003 (ip), vehicle: other 104 % of control | dose: 200.0 mg/kg/injection, schedule: Q01DX001 (ip), vehicle: other 95 % of control
